Assay results reported in patent US20100233229A1, “IN-VIVO INDWELLING DEVICE” (Terumo Kabushiki Kaisha, priority 2007, published 2010).

Experiment: ultra-micro hardness under load (HTL) of coating layer, JIS Z2255, dynamic ultra micro hardness tester
Type: physicochemical
Conditions: coating layer on SUS disc; 50 mg sirolimus, 50 mg PLGA, 10 mg (20% based on PLGA) of the triglyceride; about 30 μm
Experimental: When the medium-chain fatty acid triglyceride is added to the coating layer (for example, the layer formed on at least a part of a surface of a stent main body and formed from the composition containing the biologically active agent, the biodegradable polymer, and the medium-chain fatty acid triglyceride) formed on a surface of the in-vivo indwelling device, for example, on a surface of a stent, flexibility can be imparted to the coating layer. In addition, as a method for quantitatively measuring the flexibility of a very thin layer such as the above-mentioned coating layer, measurement of ultra-micro hardness under load (also called “HTL,” “dynamic hardness” and “universal hardness”) by use of an ultra-micro hardness tester can be used. In this method, as described in JIS Z2255, hardness of a solid material is measured as a resistance to a triangular pyramid diamond indenter when the indenter is pressed against the surface of a specimen, and it is possible by the method to measure hardness in a very minute region of a solid material having a thickness of not less than 10 μm. In order that such a damage as cracking of the coating layer or exfoliation of the coating layer from the stent main body is mitigated or not generated when the stent is expanded, the ultra-micro hardness under load can be 15 or below, more preferably 12 or below, and particularly preferably 10 or below. The present inventors have made earnest search for a substance which causes the ultra-micro hardness under load of the coating layer to be, for example, 15 or below and which is high in safety, among a large number of additives. As a result of the search, they found exemplary medium-chain fatty acid triglycerides.
The circular discs provided thereon with the respective coating layers were sterilized by electron beams, and ultra-micro hardness under load (HTL) of the coating layers was measured according to JIS Z2255 by use of a dynamic ultra micro hardness tester produced by Shimadzu Corporation. A lower value of HTL indicates a higher flexibility of the coating layer.
The stent was crimped onto a balloon of a delivery catheter, and sterilized by electron beams. The ultra-micro hardness under load (HTL) of the coating layer after sterilization was measured according to JIS Z2255 by use of a dynamic ultra micro hardness tester produced by Shimadzu Corporation.

ultra-micro hardness under load (HTL)	Structure (SMILES)
9	CCCCCCCCCC(=O)OCC(COC(=O)CCCCCCCCC)OC(=O)CCCCCCCCC [Tricaprin]
20	CC(=O)OCC(COC(C)=O)OC(C)=O [Triacetin]
10	CCCCCCCC(=O)OCC(COC(=O)CCCCCCC)OC(=O)CCCCCCC [Tricaprylin]
15	CCCCCC(=O)OCC(COC(=O)CCCCC)OC(=O)CCCCC [Tricaproin]
15	CCCCCCCCCCCC(=O)OCC(COC(=O)CCCCCCCCCCC)OC(=O)CCCCCCCCCCC [Trilaurin]
20	CCCCCCCCCCCCCC(=O)OCC(COC(=O)CCCCCCCCCCCCC)OC(=O)CCCCCCCCCCCCC [Trimyristin]
19	CCCC(=O)OCC(COC(=O)CCC)OC(=O)CCC [Tributyrin]
